Data published in US20110195505A1, “BACTERIAL STRAINS FOR BUTANOL PRODUCTION” (priority 2009, published 2011).
Several values for one entry are separate records, joined by “and”; a condition that tells them apart may be missing. Equal values may be shown once.

How the values were obtained:
BP63 (ΔfabZ1) [1] = experiment: Shake flask growth rate of BP63 with isobutanol and oleic acid; assay type: cell-based, L. plantarum
Procedure: Four sets of conditions were prepared. For the first set, 20 mg/l oleic acid was added and isobutanol was added to 0, 1, 1.5, 2 and 2.5% final concentration. In the second set of flasks, 30 mg/L of oleic acid was added to the medium and the following final isobutanol concentrations were used: 0, 1, 1.5, 2, 2.5, and 3% w/v. The third and fourth set of the shake flask cultures were done at oleic acid concentrations of 50 and 55 mg/L. These flasks were placed in a shaking water bath at 30° C. at 80 RPM. Samples were taken at 2, 3, 4, and 5 hrs and the OD600 was measured.

[2] = system: L. plantarum strain PN0512; experiment: Growth yield (OD600) in isobutanol, stearic acid fed and unfed cultures; assay type: cell-based, Lactobacillus plantarum; details: no fatty acid fed, 25 hours, 30° C.
Procedure: For growth yield experiments, 5 ml of medium with test fatty acids (10-500 mg per liter) and varying concentrations of isobutanol in 15 ml screw cap tubes was inoculated with 12.5 μl of the working stock giving an initial OD600 of 0.012. The caps were tightly sealed and incubated at 30° C. on a roller drum for 20 to 26 hours, at which time 1.0 ml was removed and OD600 was measured with a blank of medium amended with the fatty acid. All solvent concentrations are reported as % (w/v).
Growth of L. plantarum cultures in the media described in General Methods and containing varying concentrations of isobutanol was measured and compared with the cultures fed (supplemented with) stearic acid at a final concentration of 50 mg per liter of medium. Cultures were prepared as described in General Methods.

BP63 (ΔfabZ1) [3] = experiment: Growth of BP63 in the presence of isobutanol and oleic acid; assay type: cell-based, L. plantarum; details: for Growth (OD600) of BP63 (ΔfabZ1): 18 hours, 30° C.
Procedure: The purpose of these experiments was to see if the requirement for oleic acid changed in the presence of isobutanol. Semi-synthetic LAB medium, pH6, supplemented with 75 μg/mL uracil, 2.5 μg/mL hematin was used along with a series of varying concentrations of isobutanol and oleic acid. Oleic was added to the final concentrations of 0, 10, 20, 30, 40, and 50 mg/L. Isobutanol was added to the final concentrations of 0, 1.0, 1.5, 2.0, 2.5, and 3% (w/v). 2.5 mL of media was inoculated with […] of the BP63 working stock. The cultures were incubated at 30° C. without shaking for 18 hours. At 18 hours the OD600 was measured.

BP15 (fabZ1^+) = experiment: Growth yield (OD600) with oleic acid, parental strain; assay type: cell-based, L. plantarum; details: 24 hours, 30° C.
Procedure: (§1) Strain BP63 (ΔfabZ1, described in Example 4) and the parental strain BP15 (fabZ1^+, described in Example 3) were grown in semi-synthetic LAB medium, pH6, with 75 μg/ml uracil and 2.5 μg/mL hematin in the presence and absence of an unsaturated fatty acid, oleic acid. Cultures were prepared as described in General Methods.

[4] = system: BP63 (L. plantarum PN0512ΔpyrFΔfabZ1); experiment: Fatty acid supplements supporting growth of the fabZ1 mutant; assay type: cell-based; details: fatty acid supplied at 80 mg/L; overnight incubation, OD600
Procedure: With 100 or 200 mg/liter of oleic acid the growth of BP63 was equivalent to that of the fabZ1^+ control strain, BP15. […] Thus, we conclude that fabZ1 in L. plantarum has the same function as FabN in E. faecalis (Wang, H. and Cronan, J. E. 2004. Functional replacement of the FabA and FabB proteins of Escherichia coli fatty acid synthesis by Enterococcus faecalis FabZ and FabF homologs. J. Biol. Chem. 279, 34489-95). To further test the range of fatty acid supplements that support growth of the fabZ1 mutant, several other fatty acids were supplied at 80 mg/L to the semi-synthetic LAB medium as described above. BP63 and the parental control BP15 were inoculated from the working stocks. After overnight incubation, the OD600 was measured. The growth of BP15 was not inhibited by any of the fatty acids tested. The Table 9 below summarizes the results for the fabZ1 mutant strain, BP63.

BP63 (ΔfabZ1) [5] = experiment: Growth yield (OD600) with oleic acid, fabZ1 deletion strain; assay type: cell-based, L. plantarum; details: for OD600 BP63 (ΔfabZ1): 24 hours, 30° C.
Procedure: as §1

Compound: CC(C)CO [Isobutanol, isobutanol]
- effect of isobutanol on growth rate of fabZ1 mutant strain BP63 (BP63 (ΔfabZ1) [1]; shake flask, suboptimal concentrations of oleic acid, FIG. 1): stimulated growth
- OD600 unfed control ([2]; 2.3 % w/v isobutanol): 0.727
- OD600 unfed control ([2]; 2.5 % w/v isobutanol): 0.341
- OD600 unfed control ([2]; 2.7 % w/v isobutanol): 0.131
- OD600 unfed control ([2]; 2.9 % w/v isobutanol): 0.051
- Growth (OD600) of BP63 (ΔfabZ1) (BP63 (ΔfabZ1) [3]; oleic acid 0 mg/liter, iso-butanol 1%): 0.0383
- Growth (OD600) of BP63 (ΔfabZ1) (BP63 (ΔfabZ1) [3]; oleic acid 0 mg/liter, iso-butanol 1.5%): 0.0385
- Growth (OD600) of BP63 (ΔfabZ1) (BP63 (ΔfabZ1) [3]; oleic acid 0 mg/liter, iso-butanol 2%): 0.0402
- Growth (OD600) of BP63 (ΔfabZ1) (BP63 (ΔfabZ1) [3]; oleic acid 0 mg/liter, iso-butanol 2.5%): 0.038
- Growth (OD600) of BP63 (ΔfabZ1) (BP63 (ΔfabZ1) [3]; oleic acid 0 mg/liter, iso-butanol 3%): 0.0351
- Growth (OD600) of BP63 (ΔfabZ1) (BP63 (ΔfabZ1) [3]; oleic acid 10 mg/liter, iso-butanol 1%): 0.0829
- Growth (OD600) of BP63 (ΔfabZ1) (BP63 (ΔfabZ1) [3]; oleic acid 10 mg/liter, iso-butanol 1.5%): 0.0601
- Growth (OD600) of BP63 (ΔfabZ1) (BP63 (ΔfabZ1) [3]; oleic acid 10 mg/liter, iso-butanol 2%): 0.0701
- Growth (OD600) of BP63 (ΔfabZ1) (BP63 (ΔfabZ1) [3]; oleic acid 10 mg/liter, iso-butanol 2.5%): 0.0684
- Growth (OD600) of BP63 (ΔfabZ1) (BP63 (ΔfabZ1) [3]; oleic acid 10 mg/liter, iso-butanol 3%): 0.0397
- Growth (OD600) of BP63 (ΔfabZ1) (BP63 (ΔfabZ1) [3]; oleic acid 20 mg/liter, iso-butanol 1%): 0.2291
- Growth (OD600) of BP63 (ΔfabZ1) (BP63 (ΔfabZ1) [3]; oleic acid 20 mg/liter, iso-butanol 1.5%): 0.2375
- Growth (OD600) of BP63 (ΔfabZ1) (BP63 (ΔfabZ1) [3]; oleic acid 20 mg/liter, iso-butanol 2%): 0.068
- Growth (OD600) of BP63 (ΔfabZ1) (BP63 (ΔfabZ1) [3]; oleic acid 20 mg/liter, iso-butanol 2.5%): 0.0594
- Growth (OD600) of BP63 (ΔfabZ1) (BP63 (ΔfabZ1) [3]; oleic acid 20 mg/liter, iso-butanol 3%): 0.0399
- Growth (OD600) of BP63 (ΔfabZ1) (BP63 (ΔfabZ1) [3]; oleic acid 30 mg/liter, iso-butanol 1%, listed as iso-butanol): 0.7686
- Growth (OD600) of BP63 (ΔfabZ1) (BP63 (ΔfabZ1) [3]; oleic acid 30 mg/liter, iso-butanol 1%, listed as isobutanol): 0.769
- Growth (OD600) of BP63 (ΔfabZ1) (BP63 (ΔfabZ1) [3]; oleic acid 30 mg/liter, iso-butanol 1.5%, listed as iso-butanol): 0.7137
- Growth (OD600) of BP63 (ΔfabZ1) (BP63 (ΔfabZ1) [3]; oleic acid 30 mg/liter, iso-butanol 1.5%, listed as isobutanol): 0.714
- Growth (OD600) of BP63 (ΔfabZ1) (BP63 (ΔfabZ1) [3]; oleic acid 30 mg/liter, iso-butanol 2%): 0.402
- Growth (OD600) of BP63 (ΔfabZ1) (BP63 (ΔfabZ1) [3]; oleic acid 30 mg/liter, iso-butanol 2.5%): 0.1606
- Growth (OD600) of BP63 (ΔfabZ1) (BP63 (ΔfabZ1) [3]; oleic acid 30 mg/liter, iso-butanol 3%): 0.0995
- Growth (OD600) of BP63 (ΔfabZ1) (BP63 (ΔfabZ1) [3]; oleic acid 40 mg/liter, iso-butanol 1%): 1.2315
- Growth (OD600) of BP63 (ΔfabZ1) (BP63 (ΔfabZ1) [3]; oleic acid 40 mg/liter, iso-butanol 1.5%): 0.8852
- Growth (OD600) of BP63 (ΔfabZ1) (BP63 (ΔfabZ1) [3]; oleic acid 40 mg/liter, iso-butanol 2%): 0.8012
- Growth (OD600) of BP63 (ΔfabZ1) (BP63 (ΔfabZ1) [3]; oleic acid 40 mg/liter, iso-butanol 2.5%): 0.1793
- Growth (OD600) of BP63 (ΔfabZ1) (BP63 (ΔfabZ1) [3]; oleic acid 40 mg/liter, iso-butanol 3%): 0.1358
- Growth (OD600) of BP63 (ΔfabZ1) (BP63 (ΔfabZ1) [3]; oleic acid 50 mg/liter, iso-butanol 1%): 1.2567
- Growth (OD600) of BP63 (ΔfabZ1) (BP63 (ΔfabZ1) [3]; oleic acid 50 mg/liter, iso-butanol 1.5%): 1.257
- Growth (OD600) of BP63 (ΔfabZ1) (BP63 (ΔfabZ1) [3]; oleic acid 50 mg/liter, iso-butanol 2%): 0.5464
- Growth (OD600) of BP63 (ΔfabZ1) (BP63 (ΔfabZ1) [3]; oleic acid 50 mg/liter, iso-butanol 2.5%): 0.1654
- Growth (OD600) of BP63 (ΔfabZ1) (BP63 (ΔfabZ1) [3]; oleic acid 50 mg/liter, iso-butanol 3%): 0.1185
- effect of isobutanol on growth of the fabZ1 mutant (BP63 (ΔfabZ1) [3]; oleic acid supplied at sub-optimal levels): enhanced the growth

Compound: CCCCCCCC/C=C\CCCCCCCC(=O)O [Oleic acid, oleic acid]
- OD600 BP15 (fabZ1^+) (BP15 (fabZ1^+); oleic acid 1.5 mg/liter): 0.9449
- OD600 BP15 (fabZ1^+) (BP15 (fabZ1^+); oleic acid 3 mg/liter): 0.8375
- OD600 BP15 (fabZ1^+) (BP15 (fabZ1^+); oleic acid 6 mg/liter): 0.9459
- OD600 BP15 (fabZ1^+) (BP15 (fabZ1^+); oleic acid 12 mg/liter): 0.9681
- OD600 BP15 (fabZ1^+) (BP15 (fabZ1^+); oleic acid 25 mg/liter): 1.0069
- OD600 BP15 (fabZ1^+) (BP15 (fabZ1^+); oleic acid 100 mg/liter): 1.0915
- OD600 BP15 (fabZ1^+) (BP15 (fabZ1^+); oleic acid 200 mg/liter): 1.3187
- growth rate of BP63 compared with parental strain BP15 (BP63 (ΔfabZ1) [1]; 55 mg/liter oleic acid, all concentrations of isobutanol): essentially identical
- Supports growth of BP63 [4]: YES
- growth of BP63 compared with fabZ1^+ control strain BP15 (BP63 (ΔfabZ1) [5]; 100 or 200 mg/liter of oleic acid): equivalent
- growth of BP63 (BP63 (ΔfabZ1) [5]; low concentrations of oleic acid up to 12 mg/liter): essentially no growth
- OD600 BP63 (ΔfabZ1) (BP63 (ΔfabZ1) [5]; oleic acid 1.5 mg/liter): 0.0091
- OD600 BP63 (ΔfabZ1) (BP63 (ΔfabZ1) [5]; oleic acid 3 mg/liter): 0.0081
- OD600 BP63 (ΔfabZ1) (BP63 (ΔfabZ1) [5]; oleic acid 6 mg/liter): 0.0084
- OD600 BP63 (ΔfabZ1) (BP63 (ΔfabZ1) [5]; oleic acid 12 mg/liter): 0.0234
- OD600 BP63 (ΔfabZ1) (BP63 (ΔfabZ1) [5]; oleic acid 25 mg/liter): 0.6943
- OD600 BP63 (ΔfabZ1) (BP63 (ΔfabZ1) [5]; oleic acid 100 mg/liter): 1.1452
- OD600 BP63 (ΔfabZ1) (BP63 (ΔfabZ1) [5]; oleic acid 200 mg/liter): 1.3725
- Growth (OD600) of BP63 (ΔfabZ1) (BP63 (ΔfabZ1) [3]; oleic acid 10 mg/liter, iso-butanol 0%): 0.0835
- Growth (OD600) of BP63 (ΔfabZ1) (BP63 (ΔfabZ1) [3]; oleic acid 20 mg/liter, iso-butanol 0%): 0.1046
- Growth (OD600) of BP63 (ΔfabZ1) (BP63 (ΔfabZ1) [3]; oleic acid 30 mg/liter, iso-butanol 0%): 0.153 and 0.1526
- Growth (OD600) of BP63 (ΔfabZ1) (BP63 (ΔfabZ1) [3]; oleic acid 40 mg/liter, iso-butanol 0%): 0.2976
- Growth (OD600) of BP63 (ΔfabZ1) (BP63 (ΔfabZ1) [3]; oleic acid 50 mg/liter, iso-butanol 0%): 1.181
